Experimental findings from US10513538B2, “Dipeptidyl peptidase-IV (DPPIV), inhibitory peptide compound, composition containing the same, and production method for the same” (MARUHA NICHIRO CORPORATION, priority 2013, dated 2019) are described below.

Residues, ends and D or L forms follow the SMILES beside them.

This assay addresses T1, DPPIV (Human, recombinant) (Homo sapiens, UniProt P27487).
T1 construct: purchased Biomol (DPPIV Drug Discovery Assay Kit, Enzo Life Sciences, Inc.)
Kind of assay: DPPIV inhibitory activity measurement with partly modified DPPIV Drug Discovery Assay Kit (AMC substrate). In kind it is biochemical. The settings on record: for Activity Contribution Ratio (%): contribution of the peptide to the DPPIV inhibitory activity of the salmon milt peptide composition, from content, peptide IC50 and composition IC50; for IC50: synthesized peptide, serially diluted.

T1 sequence (P27487 whole entry): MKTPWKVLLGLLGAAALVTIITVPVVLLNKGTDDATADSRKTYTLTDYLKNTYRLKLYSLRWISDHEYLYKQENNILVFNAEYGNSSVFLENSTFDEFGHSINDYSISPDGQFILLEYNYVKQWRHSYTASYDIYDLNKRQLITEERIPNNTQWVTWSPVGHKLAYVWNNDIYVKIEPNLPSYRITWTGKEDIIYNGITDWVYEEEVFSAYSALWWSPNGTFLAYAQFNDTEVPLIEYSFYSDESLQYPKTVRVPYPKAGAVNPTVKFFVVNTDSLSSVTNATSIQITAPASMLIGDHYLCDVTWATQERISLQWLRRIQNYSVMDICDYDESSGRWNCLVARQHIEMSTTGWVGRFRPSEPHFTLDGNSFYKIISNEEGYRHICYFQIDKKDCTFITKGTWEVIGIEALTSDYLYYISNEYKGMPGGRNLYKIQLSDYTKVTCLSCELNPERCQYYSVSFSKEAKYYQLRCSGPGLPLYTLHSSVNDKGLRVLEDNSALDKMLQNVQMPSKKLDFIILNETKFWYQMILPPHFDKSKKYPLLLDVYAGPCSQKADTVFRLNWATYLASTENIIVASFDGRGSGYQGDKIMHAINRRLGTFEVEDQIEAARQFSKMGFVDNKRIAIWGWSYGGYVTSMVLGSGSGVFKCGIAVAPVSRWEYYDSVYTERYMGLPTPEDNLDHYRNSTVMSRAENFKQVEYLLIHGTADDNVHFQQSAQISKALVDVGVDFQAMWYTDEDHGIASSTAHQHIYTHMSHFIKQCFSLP
Protocol: Each of the DPPIV inhibitory peptide compounds obtained in Example 1 was measured for the DPPIV inhibitory activity. The measurement was performed by using a partly modified DPPIV Drug Discovery Assay Kit (manufactured by Enzo Life Sciences, Inc.). As a substrate of a DPPIV enzyme, an AMC substrate (H-Gly-Pro-amino-4-methylcoumarin, BML-P189-9090; manufactured by Biomol) was used, as an enzyme, DPPIV (Human, recombinant; manufactured by Biomol) was used, and as a control inhibitor, Diprotin A (manufactured by Peptide Institute Inc.) was used. […] To the resultant solution, 50 μL of an AMC substrate solution (0.01 mM) pre-incubated at 37° C. was added, and a fluorescence intensity was measured at an excitation wavelength of 340 nm and a measurement wavelength of 460 nm every 5 minutes for 30 minutes by using a microplate reader (GENio Pro, manufactured by TECAN). The activity in the case without sample was set as 100%, and the relative activity of each sample was calculated. The measurement was repeatedly performed three times for each sample to obtain an average.
Each of the peptide compositions thus obtained was dissolved in distilled water in a concentration of 3 mg/mL, the resultant was subjected to a 0.45 μm membrane filter treatment, and the DPPIV inhibitory activity test was performed in the same manner as in Example 2.
Each peptide identified by the LC-MS analysis of Example 6 was synthesized and dissolved in distilled water to find the DPPIV inhibitory activity in the same manner as in Example 2.

The term IC50 denotes the concentration that gives 50% inhibition. Take `CC[C@H](C)[C@H](N)C(=O)N1CCC[C@H]1C(=O)O` [IP, Ile-Pro] (H-Ile-Pro-OH; N-terminus and C-terminus assumed): the “Activity Contribution Ratio (%)” value came out at 6.6% and the IC50 was found to be 66 µM.
Taken in the same sequence, the figures for `CC(C)C[C@H](NC(=O)[C@@H](NC(=O)[C@@H]1CCCN1C(=O)[C@@H](N)CC(C)C)C(C)C)C(=O)O` [LPVL, Leu-Pro-Val-Leu] (H-LPVL-OH; N-terminus and C-terminus assumed) were 0.2% and 46 µM.
For `CC(C)C[C@H](N)C(=O)N1CCC[C@H]1C(=O)O` [LP, Leu -Pro] (H-Leu-Pro-OH), the IC50 is more than 100 µM.
With `N[C@@H](Cc1ccccc1)C(=O)N1CCC[C@H]1C(=O)O` [FP, Phe-Pro] (H-Phe-Pro-OH), the IC50 was more than 100 µM.
In the case of `CC(C)[C@H](NC(=O)[C@@H]1CCCN1C(=O)[C@@H](N)Cc1ccccc1)C(=O)NCC(=O)O` [FPVG, Phe-Pro-Val-Gly] (H-FPVG-OH; N-terminus and C-terminus assumed), the “Activity Contribution Ratio (%)” value came out at 0.4% and the IC50 turned out to be 40 µM.
